The values below come from patent US20240091306A1 (Dompe' Farmaceutici SPA, priority 2020, published 2024).

For test [1], the system named is HUVECs. Put plainly: Angiogenic activity assay on BME-coated wells, stressed HUVECs. The test is classed as cell-based, human. On the procedure: (§1) Low passage HUVECs were grown under stressed (serum starved; 0.5% FBS) conditions for 16 h in endothelial basal medium (EBM) and then harvested and resuspended in complete medium containing 10% FBS.
(§2) Cells were seeded (5×10^4 cells per well) in wells coated with growth factor-reduced Cultrex basement membrane extract (BME; Trevigen Gaithersburg, MD, USA) and left untreated (NT) or treated with 10 ng/ml of GST, p24, p17 or each p17-derived peptide F1 to F8.
Data are the means±SD of three independent experiments with similar results.
Statistical analysis was performed by one-way ANOVA and the Bonferroni post-test was used to compare data (***P<0.001).

Test [2] concerns HUVECs. The test is described as follows: Angiogenic activity assay under normal and stressed condition. Particulars: 10 ng/ml. Type of test: cell-based, human. On the procedure:
Low passage HUVECs were grown under normal (10% FBS) or stressed (serum starved; 0.5% FBS) conditions for 16 h in endothelial basal medium (EBM) and then harvested and resuspended in complete medium containing 10% FBS. […]
An EPO-derived 11 amino acids-long peptide (EPO peptide—SEQ ID No. 10) and a F3-derived 16 amino acids-long peptide (F3S—SEQ ID No. 9) were synthetized and tested at 10 ng/ml for their angiogenic activity under the same procedure of Example 7.

Test [3] has as its system full-thickness excisional skin wounds. Put plainly: In vivo wound-healing assay in diabetic mice. Further details: species or system spontaneously diabetic (db/db) mice. Particulars: db/db mice, topical daily, 1.0 μg/50 μL days 0 to 7 and 10 μg/50 μL days 8 to 13; days 8 to 14 (p≤0.035). The source says: Patients with diabetes are prone to impaired wound healing, with foot ulceration being particularly prevalent. This delay in wound healing also extends to animal models of diabetes. The impact of the EPO peptide (DSRVLERYLLE, corresponding to SEQ ID No. 10) on wound healing was therefore investigated by in vivo experiments on spontaneously diabetic (db/db) mice (i.e., BKS.Cg-m Dock7^m+/+Lepr^db/J mice).
In this study, the healing of full-thickness excisional skin wounds on the flanks of diabetic mice in receipt of the EPO peptide was compared to that of wounds in receipt of negative control (Water for Injection) treatment. The overall wound closure (i.e. the reduction in open wound area) was determined over time by taking scaled wound images of each wound at each assessment point.
EPO Peptide (DFL24435) was solubilized at 200 μg/mL (10 μg per 50 μL) in sterile water for injection, aliquoted into 100 μL volumes, stored at −20° C., defrosted on the day of use and diluted as necessary.
The animals were divided in a control group, that was treated with water for injection, and a EPO peptide group, that was treated with the peptide. Treatment was carried out once a day on post-wounding days 0 to 13 and the animals were sacrificed on day 14. […]

The target in a further test is CXCR1 (Homo sapiens, UniProt P25024). Particulars: He W et al. 2019; cited from earlier work.
CXCR1, sequence (P25024 whole entry): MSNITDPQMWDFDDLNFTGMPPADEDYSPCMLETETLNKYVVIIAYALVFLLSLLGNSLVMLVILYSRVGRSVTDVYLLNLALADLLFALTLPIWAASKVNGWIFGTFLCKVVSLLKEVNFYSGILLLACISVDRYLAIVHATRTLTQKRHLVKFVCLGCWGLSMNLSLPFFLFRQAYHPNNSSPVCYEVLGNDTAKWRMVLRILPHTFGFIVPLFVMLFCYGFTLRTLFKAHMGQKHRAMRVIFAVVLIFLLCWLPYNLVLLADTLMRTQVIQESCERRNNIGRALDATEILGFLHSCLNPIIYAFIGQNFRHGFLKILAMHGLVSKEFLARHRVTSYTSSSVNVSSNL
The next test concerns the target CXCR2 (Homo sapiens, UniProt P25025). Particulars: He W et al. 2019; cited from earlier work.
For test [4], the system named is HUVECs. The test is described as follows: Angiogenic activity assay with CXCR1 and CXCR2 inhibition. Particulars: stressed HUVECs, peptide 10 ng/ml, preincubation 1 hour with 2.5 μg/ml mAb. Type of test: cell-based, human. On the procedure:
as §1
Cells were seeded (5×10^4 cells per well) in wells coated with growth factor-reduced Cultrex basement membrane extract (BME; Trevigen Gaithersburg, MD, USA) and left untreated (NT) or treated with 10 ng/ml of each p17-derived peptide F1 or F2, after preincubation for 1 hour at 37° C. with 2.5 μg/ml of a control isotype-matched mAb (Ctrl mAb), a neutralizing mAb to CXCR1 and/or a neutralizing mAb to CXCR2.

Test [5] has as its system HUVECs. The test is described as follows: Wound-healing assay (EC migration). Type of test: cell-based, human. Particulars: 10 ng/ml; for effect on HUVEC migration: 12 h; for healing: after 12 h of culture. On the procedure: The involvement of peptide F2 and F3 in promoting EC migration was evaluated by performing a wound healing assay.
HUVECs were plated on 24-well plates (10^5 cells per well) in complete medium containing 10% FBS. Confluent monolayers were nutrient starved for 16 h and then scratched using a 200 μI pipette tip. After being washed, cells were left untreated or treated with 10 ng/ml of GST, p24, p17, or each p17-derived peptide F1 to F8.

Another test relates to endothelial cells. Put plainly: Involvement of autophagy-based pathway in angiogenic activity. Type of test: cell-based.
The test system of test [6] is chick chorioallantoic membrane (CAM). Put plainly: Chick chorioallantoic membrane (CAM) assay. The test is classed as in vivo, White Leghorn chicken. Particulars: 100 ng on gelatin sponge, day 12. On the procedure:
The vasculogenic activity of peptide F2 and F3 was further characterized by in vivo experiments by using the chick chorioallantoic membrane (CAM) assay.
Fertilized White Leghorn chicken eggs (30 per group) were incubated at 37° C. at constant humidity. On day 3, a square window was opened in the shell, and 2-3 ml of albumin was removed to allow detachment of the developing CAM. The window was sealed with a glass, and the eggs were returned to the incubator. On day 8, eggs were treated with 1 mm 3 sterilized gelatin sponges (Gelfoam; Upjohn, Kalamazoo, MI, USA) placed on top of the growing CAM, as described in Ribatti D et al, Nat Protoc, 2006; 1:85-91, and loaded with 1 μl of PBS (negative control), 1 μl of PBS containing 100 ng of peptide F2 or F3. CAMs were examined daily until day 12 and photographed in ovo with a stereomicroscope equipped with a camera and image analyzer system (Olympus, Hamburg, Germany). At day 12, the angiogenic response was evaluated by the image analyzer system and counted as the number of vessels converging toward the sponge.

The next test concerns aortic rings. The test is described as follows: Rat aortic ring assay (ex vivo). Type of test: cell-based, Sprague-Dawley rats. Particulars: 10 days. On the procedure: Briefly, the dorsal aorta was excised from 6-wk-old Sprague-Dawley rats. Rings, 1-mm thick, were embedded in collagen gel and then incubated with serum-free EBM containing PBS, peptide F2 (10 ng/ml), peptide F3 (10 ng/ml), or FGF-2 (50 ng/ml) (Thermo Fisher Scientific, Rodano, Italy). The plates were incubated for 10 days and angiogenesis was quantified by counting the number of microvessels originating from aortic rings.

The conditions of test [7]: He W et al. 2019; cited from earlier work.
The test system of the next test is LN-LECs. Put plainly: Angiogenic activity assay on LN-LECs. Particulars: LN-LECs (lymph node). Type of test: cell-based, human. On the procedure:
Human primary lymph node-derived endothelial cells (LN-LECs) have been developed and characterized as described in Norder et al, FASEB J, 2012; 26:2835-2846.
LN-LECs were cultured in EGM (Lonza) containing 10% FBS and supplemented with VEGF-C (25 ng/ml) (Reliatech, Wolfenbuettel, Germany).
as §1, §2
(§3) Similar results were obtained by using human ECs derived from different origin, such as aorta (HAECs), lung (HMVEC-Ls) and lymph node (LN-LECs) (FIGS. 3, 4 and 5, respectively).

The test system of the next test is HAECs. Put plainly: Angiogenic activity assay on HAECs. The test is classed as cell-based, human. Particulars: HAECs (aorta). On the procedure:
(§4) Human aortic endothelial cells (HAECs) and Human lung microvascular endothelial cells (HMVEC-Ls) were purchased from Clonetics (San Diego, CA, USA) and cultured in EGM-2MV (Lonza) containing 10% (vol/vol) FBS.
as §1, §2, §3

A further test deals with HMVEC-Ls. The test is described as follows: Angiogenic activity assay on HMVEC-Ls. Type of test: cell-based, human. Particulars: HMVEC-Ls (lung). On the procedure:
as §4, §1, §2, §3

A further test has as its system B cell. Particulars: He W et al. 2019; cited from earlier work.
The mark [8] stands for this setting: HUVECs, as example 2, 10 ng of the peptide.
Where [9] appears, read: normal (10% FBS) culture conditions.
Where [10] appears, read: stressed (serum starved; 0.5% FBS) conditions.
Setting [11] is: HUVECs stressed (serum starved; 0.5% FBS) 16 h, 10 ng/ml.

CXCR2, sequence (P25025 whole entry): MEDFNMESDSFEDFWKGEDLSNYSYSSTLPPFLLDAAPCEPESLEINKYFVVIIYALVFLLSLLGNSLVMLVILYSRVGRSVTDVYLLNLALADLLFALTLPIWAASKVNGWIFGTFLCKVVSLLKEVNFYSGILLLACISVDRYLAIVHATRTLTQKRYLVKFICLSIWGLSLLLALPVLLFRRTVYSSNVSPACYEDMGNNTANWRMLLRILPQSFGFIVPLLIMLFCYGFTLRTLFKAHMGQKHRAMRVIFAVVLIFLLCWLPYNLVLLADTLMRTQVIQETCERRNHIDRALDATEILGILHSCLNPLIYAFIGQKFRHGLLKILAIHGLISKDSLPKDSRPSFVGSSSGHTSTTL

As to AANELDRF [SIVcpz-derived peptide], in the test with HUVECs [1] (setting [8]), the angiogenic activity entry is given as “able to significantly promote angiogenesis”.

In the case of AANELDRFLLE [SIVcpz-derived peptide], the angiogenic activity entry with HUVECs [1] (setting [8]) is on record as “able to significantly promote angiogenesis”.

Consider ASRELERF (ASRELERFLLE), for which, in the test with HUVECs [1] (setting [8]), the angiogenic activity result is on record as “able to significantly promote angiogenesis”.

In the case of ASRELERFACNPELLE [peptide gor], in the test on HUVECs [1] (setting [8]), the angiogenic activity entry was “able to significantly promote angiogenesis”.

Turning to ASRELERFACNPGLME [peptide cpz], in the test with HUVECs [1] (setting [8]), the angiogenic activity result is on record as “able to significantly promote angiogenesis”.

For the substance “ASRELERFAVNPGLLE [Peptide F3S, F3-derived 16 amino acids-long peptide]”, the angiogenic activity result in the test on HUVECs [2] (setting [9]) and with HUVECs [2] (setting [10]) was “potent angiogenic activity” throughout.

Take ASRELERFLLE: in the test with HUVECs [1] (setting [8]), the angiogenic activity entry was “able to significantly promote angiogenesis”.

Regarding “DSRVLERYLLE [EPO peptide, EPO-derived 11 amino acids-long peptide]”, in [3], the “wound closure (reduction in open wound area) compared to vehicle” value is “significantly increased closure”. Besides, the angiogenic activity result in the test with HUVECs [2] (setting [9]) and with HUVECs [2] (setting [10]) was “potent angiogenic activity” in each case.

For EKIRLRPGGKKKYKLKHIVW [Peptide F2], the “binding to CXCR1 receptor” value on CXCR1 is on record as “capable to bind”. Besides, on CXCR2, the “binding to CXCR2 receptor” value is on record as “capable to bind”. Besides, the “effect of neutralizing mAb to CXCR1 and CXCR2 on peptide-induced angiogenesis” value in the test with HUVECs [4] is “inhibitory”. In the test on HUVECs [5], the “effect on HUVEC migration” value is on record as “comparable to that exerted by p17”. The same substance registered a healing in the test on HUVECs [5] of roughly 100%. The “involvement of autophagy-based pathway in angiogenic activity” value in the test with endothelial cells was “involves an autophagy-based pathway”. In addition, the “mean number of vessels converging toward the sponge” value in [6] was determined as 27±4. The angiogenic activity result is “endowed with angiogenic activity” in the test with HUVECs [1] (setting [11]); “potent angiogenic activity” in the test on LN-LECs; “promoting angiogenesis under stress condition only” with HUVECs [2] (setting [9]); “potent angiogenic activity” in the test on HUVECs [2] (setting [10]); “potent angiogenic activity” in the test on HAECs; “potent angiogenic activity” in the test on HMVEC-Ls. For the same substance, the “number of microvessels originating from aortic rings” value (“number of microvessels originating” below) in the test with aortic rings (10 ng/ml) turned out to be 55±5. The binding to heparin entry in test [7] is given as “capable to bind”.

Regarding “FGF-2: FGF-2 (Thermo Fisher Scientific), positive control in aortic ring assay [reference compound]”, the “number of microvessels originating” value in the test with aortic rings (50 ng/ml) is recorded as 84±6.

“GARASVLSGGELDRWEKIRL [Peptide F1, p17-derived peptide, aminoacids 2 to 21 of p17]”: the “B cell growth promoting activity” value in the test on B cell is reported as “endowed with cell growth promoting activity”.

Consider “KHIVWASRELERFAVNPGLL [Peptide F3, p17-derived 20 amino acid peptide]”, for which, in the test with HUVECs [4], the “effect of neutralizing mAb to CXCR1 and CXCR2 on peptide-induced angiogenesis” value was “did not impair”. For the same substance, the “effect on HUVEC migration” value with HUVECs [5] was “comparable to that exerted by p17”. In addition, in the test on HUVECs [5], the healing is listed as roughly 100%. The “involvement of autophagy-based pathway in angiogenic activity” value in the test on endothelial cells is “independent from autophagy”. The “mean number of vessels converging toward the sponge” value in [6] came out at 30±3. Also, the angiogenic activity entry is “endowed with angiogenic activity” in the test on HUVECs [1] (setting [11]); “potent angiogenic activity” with LN-LECs; “promote angiogenesis” in the test with HUVECs [2] (setting [9]); “potent angiogenic activity” with HUVECs [2] (setting [10]); “potent angiogenic activity” in the test on HAECs; “potent angiogenic activity” with HMVEC-Ls. The “number of microvessels originating” value with aortic rings (10 ng/ml) is recorded as 46±8.

“glutathione S-transferase [GST, reference compound]”: in the test on HUVECs [5], the “effect on HUVEC migration” value is reported as “did not exert any effect”. Further, the angiogenic activity entry in the test with HUVECs [1] (setting [11]) is “did not induce any pro-angiogenic activity”.
